# From patent publication US20060223846A1, “Aza-bridged-bicyclic amino acid derivatives as alpha4 integrin antagonists” (priority 2005, published 2006)
# pIC50: −log10 of the molar value.
# Columns and labels:
# human α4β7 = target: T1, human α4β7 (Homo sapiens, UniProt P13612+P26010); assay: α4β7-K562 Cell Adhesion Assay (α4β7 Mediated Adhesion/VCAM-1); type: cell-based; settings: K562 cells expressing human α4β7 on recombinant hVCAM-1; read-out: α4β7 IC50
# T1 construct: expressed in transfected cells
# T1 sequence (P13612 34-1032): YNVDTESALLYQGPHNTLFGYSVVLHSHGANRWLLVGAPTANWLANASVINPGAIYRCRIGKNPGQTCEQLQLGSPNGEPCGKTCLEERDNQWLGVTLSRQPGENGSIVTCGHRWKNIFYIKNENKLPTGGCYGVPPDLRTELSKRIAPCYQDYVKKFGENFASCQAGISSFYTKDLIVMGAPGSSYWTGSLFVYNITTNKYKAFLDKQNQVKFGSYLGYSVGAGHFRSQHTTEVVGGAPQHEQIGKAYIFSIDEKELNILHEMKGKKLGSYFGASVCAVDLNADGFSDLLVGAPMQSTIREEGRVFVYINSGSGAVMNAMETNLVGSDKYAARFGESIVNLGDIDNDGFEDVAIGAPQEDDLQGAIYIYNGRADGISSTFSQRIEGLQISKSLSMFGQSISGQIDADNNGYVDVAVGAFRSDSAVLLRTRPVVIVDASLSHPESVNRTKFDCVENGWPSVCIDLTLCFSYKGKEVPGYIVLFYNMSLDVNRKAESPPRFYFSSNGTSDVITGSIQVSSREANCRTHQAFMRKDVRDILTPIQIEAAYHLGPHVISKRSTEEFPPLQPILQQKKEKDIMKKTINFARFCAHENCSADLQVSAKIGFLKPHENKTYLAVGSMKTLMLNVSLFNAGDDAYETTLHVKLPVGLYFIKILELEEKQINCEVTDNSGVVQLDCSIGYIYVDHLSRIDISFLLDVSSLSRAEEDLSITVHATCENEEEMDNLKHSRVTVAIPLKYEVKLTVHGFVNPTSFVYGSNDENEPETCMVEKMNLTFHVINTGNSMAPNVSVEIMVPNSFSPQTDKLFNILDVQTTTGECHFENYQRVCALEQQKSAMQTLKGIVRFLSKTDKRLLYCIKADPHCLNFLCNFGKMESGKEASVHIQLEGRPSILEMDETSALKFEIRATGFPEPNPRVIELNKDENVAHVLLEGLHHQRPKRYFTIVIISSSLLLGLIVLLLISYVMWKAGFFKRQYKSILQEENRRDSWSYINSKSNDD
# T1 sequence (P26010 20-798): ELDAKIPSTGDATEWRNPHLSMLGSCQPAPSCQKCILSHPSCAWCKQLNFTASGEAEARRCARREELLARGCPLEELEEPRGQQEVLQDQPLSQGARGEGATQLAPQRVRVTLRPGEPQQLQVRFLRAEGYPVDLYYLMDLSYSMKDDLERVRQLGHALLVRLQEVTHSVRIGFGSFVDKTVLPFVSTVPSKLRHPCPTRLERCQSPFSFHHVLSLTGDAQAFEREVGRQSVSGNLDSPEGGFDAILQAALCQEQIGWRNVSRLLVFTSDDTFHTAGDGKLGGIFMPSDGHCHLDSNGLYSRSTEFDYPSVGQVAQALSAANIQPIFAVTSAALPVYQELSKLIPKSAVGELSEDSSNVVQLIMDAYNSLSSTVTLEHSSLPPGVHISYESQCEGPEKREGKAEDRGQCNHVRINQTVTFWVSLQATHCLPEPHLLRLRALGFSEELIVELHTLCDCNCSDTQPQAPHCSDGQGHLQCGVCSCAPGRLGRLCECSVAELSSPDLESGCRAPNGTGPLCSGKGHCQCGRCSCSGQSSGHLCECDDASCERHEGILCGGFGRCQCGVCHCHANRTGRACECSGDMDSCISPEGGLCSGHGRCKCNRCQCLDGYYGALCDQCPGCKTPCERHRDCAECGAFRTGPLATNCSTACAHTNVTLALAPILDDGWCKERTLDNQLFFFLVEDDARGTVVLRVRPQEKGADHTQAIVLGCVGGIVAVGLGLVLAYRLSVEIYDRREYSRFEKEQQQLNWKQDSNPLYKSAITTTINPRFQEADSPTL
# Description: (§1) α4β7-K562 Cell Adhesion Assay (α4β7 Mediated Adhesion/VCAM-1) Immulon 96 well plates (Dynex) were coated with 100 μL recombinant hVCAM-1 at 4.0 μg/mL in 0.05 M NaCO3 buffer pH 9.0 overnight at 4° C. (R&D System). Plates were washed 3 times in PBS with 1% BSA and blocked for 1 h @ room temperature in this buffer. PBS was removed and compounds to be tested (50 μL) were added at 2× concentration. A stable cell line of K562 cells expressing human α4β7, (50 μL at 2×10^6/mL) labeled with 5 μM Calcein AM (Molecular Probes) for 1 h at 37° C., were added to each well and allowed to adhere for 1 h at room temperature. Plates were washed 3× in PBS+1% BSA and cells were lysed for 15 minutes in 100 μL of 1 M Tris pH 8.0 with 1% SDS. The plate was read at 485 nm excitation and 530 nm emission.
# α4β1 = α4β1 (Homo sapiens, UniProt P05556+P13612); assay: Ramos Cell Adhesion Assay (α4β1 Mediated Adhesion/VCAM-1); type: cell-based; set-up: Ramos cells, (50 μL at 2×10^6/mL) labeled with 5 μM Calcein AM; endogenous in cells; host or cells: Ramos cells; settings: Ramos cells on recombinant hVCAM-1; read-out: α4β1 IC50
# Description: as §1, with “Ramos” for “α4β7-K562”, “α4β1” for “(α4β7”, “[…]” for “96”, “Systems).” for “System).”, “Ramos cells,” for “A stable cell line of K562 cells expressing human α4β7,”
# Chain of α4β1 (P05556 21-798, one chain of several): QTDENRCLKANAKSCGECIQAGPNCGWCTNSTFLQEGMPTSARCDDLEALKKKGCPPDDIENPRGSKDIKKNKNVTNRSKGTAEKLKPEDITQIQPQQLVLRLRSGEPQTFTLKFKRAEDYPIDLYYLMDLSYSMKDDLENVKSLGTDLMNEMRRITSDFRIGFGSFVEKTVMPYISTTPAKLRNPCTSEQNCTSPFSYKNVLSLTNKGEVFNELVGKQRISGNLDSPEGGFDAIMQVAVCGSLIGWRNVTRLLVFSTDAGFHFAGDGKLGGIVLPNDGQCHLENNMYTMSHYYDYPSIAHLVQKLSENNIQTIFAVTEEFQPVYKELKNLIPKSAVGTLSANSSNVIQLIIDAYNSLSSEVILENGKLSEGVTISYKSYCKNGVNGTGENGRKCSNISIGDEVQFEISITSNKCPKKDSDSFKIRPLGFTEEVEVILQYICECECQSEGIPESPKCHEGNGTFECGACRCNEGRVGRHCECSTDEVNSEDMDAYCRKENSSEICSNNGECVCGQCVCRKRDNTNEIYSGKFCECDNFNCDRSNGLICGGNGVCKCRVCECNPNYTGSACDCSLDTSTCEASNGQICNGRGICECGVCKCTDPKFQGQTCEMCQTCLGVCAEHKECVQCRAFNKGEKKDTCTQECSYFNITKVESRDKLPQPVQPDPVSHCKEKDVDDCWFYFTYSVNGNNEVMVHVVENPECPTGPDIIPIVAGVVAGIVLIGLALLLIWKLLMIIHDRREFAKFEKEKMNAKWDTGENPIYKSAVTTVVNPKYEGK
pIC50 (human α4β7),pIC50 (α4β1),Structure (SMILES)
6.60,7.39,O=C(Nc1ccc(CC(NC(=O)C2C3CCC(CC3)N2C(=O)CCCC2CCCCC2)C(=O)O)cc1)c1c(Cl)cncc1Cl (centres unmarked) [Cpd 37]
7.82,8.30,CC(C)CCC(=O)N1C2CCC(CC2)C1C(=O)NC(Cc1ccc(NC(=O)c2c(Cl)cncc2Cl)cc1)C(=O)O (centres unmarked) [Cpd 38]
6.03,7.11,CC(=Cc1ccccc1)C(=O)N1C2CCC(CC2)C1C(=O)NC(Cc1ccc(NC(=O)c2c(Cl)cncc2Cl)cc1)C(=O)O (centres unmarked) [Cpd 40]
7.52,7.96,O=C(Nc1ccc(CC(NC(=O)C2C3CCC(CC3)N2C(=O)CC2CCOCC2)C(=O)O)cc1)c1c(Cl)cncc1Cl (centres unmarked) [Cpd 41]
7.62,8.10,O=C(Nc1ccc(CC(NC(=O)C2C3CCC(CC3)N2C(=O)OCc2ccccc2)C(=O)O)cc1)c1c(Cl)cncc1Cl (centres unmarked) [Cpd 42]
7.07,8.30,O=C(Nc1ccc(CC(NC(=O)C2C3CCC(CC3)N2C(=O)CCN2CCCCC2)C(=O)O)cc1)c1c(Cl)cncc1Cl (centres unmarked) [Cpd 43]
7.49,8.52,O=C(Nc1ccc(CC(NC(=O)C2C3CCC(CC3)N2C(=O)Cc2ccncc2)C(=O)O)cc1)c1c(Cl)cncc1Cl (centres unmarked) [Cpd 44]
7.44,8.52,COc1ccccc1C=CC(=O)N1C2CCC(CC2)C1C(=O)NC(Cc1ccc(NC(=O)c2c(Cl)cncc2Cl)cc1)C(=O)O (centres unmarked) [Cpd 45]
6.32,< 5.30,O=C(Nc1ccc(CC(NC(=O)C2C3CCC(CC3)N2C(=O)C=Cc2ccc3c(c2)OCO3)C(=O)O)cc1)c1c(Cl)cncc1Cl (centres unmarked) [Cpd 46]
8.05,9.00,COc1cccc(CCC(=O)N2C3CCC(CC3)C2C(=O)NC(Cc2ccc(NC(=O)c3c(Cl)cncc3Cl)cc2)C(=O)O)c1 (centres unmarked) [Cpd 49]
7.12,8.22,O=C(Nc1ccc(CC(NC(=O)C2C3CCC(CC3)N2C(=O)CCc2ccc(C(F)(F)F)cc2)C(=O)O)cc1)c1c(Cl)cncc1Cl (centres unmarked) [Cpd 50]
7.62,8.52,O=C(Nc1ccc(CC(NC(=O)C2C3CCC(CC3)N2C(=O)CCc2ccc(Cl)cc2)C(=O)O)cc1)c1c(Cl)cncc1Cl (centres unmarked) [Cpd 51]
7.34,8.52,O=C(Nc1ccc(CC(NC(=O)C2C3CCC(CC3)N2C(=O)CCc2ccccc2F)C(=O)O)cc1)c1c(Cl)cncc1Cl (centres unmarked) [Cpd 52]
6.85,8.52,O=C(Nc1ccc(CC(NC(=O)C2C3CCC(CC3)N2C(=O)CCN2CCNCC2)C(=O)O)cc1)c1c(Cl)cncc1Cl (centres unmarked) [Cpd 53]
6.74,7.14,O=C(Nc1ccc(CC(NC(=O)C2C3CCC(CC3)N2C(=O)CCc2cc(C(F)(F)F)cc(C(F)(F)F)c2)C(=O)O)cc1)c1c(Cl)cncc1Cl (centres unmarked) [Cpd 55]
7.64,8.70,CN(C)c1ccc(CC(=O)N2C3CCC(CC3)C2C(=O)NC(Cc2ccc(NC(=O)c3c(Cl)cncc3Cl)cc2)C(=O)O)cc1 (centres unmarked) [Cpd 56]
7.57,8.05,O=C(Nc1ccc(CC(NC(=O)C2C3CCC(CC3)N2C(=O)C#Cc2ccccc2)C(=O)O)cc1)c1c(Cl)cncc1Cl (centres unmarked) [Cpd 57]
7.80,6.70,Cc1ccc(CCN2C3CCC(CC3)C2C(=O)NC(Cc2ccc(NC(=O)c3c(Cl)cncc3Cl)cc2)C(=O)O)cc1 (centres unmarked) [Cpd 58]
6.59,6.30,COc1cccc(CC(=O)N2C3CCC(CC3)C2C(=O)NC(Cc2ccc(NC(=O)c3c(Cl)cncc3Cl)cc2)C(=O)O)c1 (centres unmarked) [Cpd 59]
6.25,6.53,O=C(Nc1ccc(CC(NC(=O)C2C3CCC(CC3)N2C(=O)Cc2csc3ccccc23)C(=O)O)cc1)c1c(Cl)cncc1Cl (centres unmarked) [Cpd 62]
7.18,7.26,O=C(Nc1ccc(CC(NC(=O)C2C3CCC(CC3)N2C(=O)c2ccccc2Oc2ccccc2)C(=O)O)cc1)c1c(Cl)cncc1Cl (centres unmarked) [Cpd 63]
7.62,8.05,O=C(Nc1ccc(CC(NC(=O)C2C3CCC(CC3)N2C(=O)OCc2ccccc2)C(=O)O)cc1)c1c(Cl)cncc1Cl (centres unmarked) [Cpd 64]
